ChEMBL document CHEMBL5550178, “Synthesis and anticancer properties of novel dolastatin 10 analogs featuring five-membered heterocyclic rings with a linkable group at the C-terminus” (Bioorg Med Chem, 2024)
Values belong to the compound of their own block, whether it stands above or below them. Non-standard residues stand in square brackets, D forms with d. Residues, ends and D or L forms follow the SMILES beside them. Dolaproine = CO[C@@H]([C@@H]1CCCN1)[C@@H](C)C(=O)O; Dil = CC[C@H](C)[C@H](NC)[C@@H](CC(=O)O)OC; NMeV = CN[C@H](C(=O)O)C(C)C

Columns and labels:
PC-3 [1] = assay: Induction of cell cycle arrest in human PC-3 cells assessed as accumulation of cells at G2/M phase at 50 nM measured after 4 days by PI staining based flow cytometry analysis (reference value: 10.7%); format: functional; conditions: time 4 day
PC-3 [2] = assay: Induction of cell cycle arrest in human PC-3 cells assessed as accumulation of cells at G1/G0 phase at 1 nM measured after 4 days by PI staining based flow cytometry analysis (reference value: 67.6%); format: functional; conditions: time 4 day
PC-3 [3] = assay: Induction of cell cycle arrest in human PC-3 cells assessed as accumulation of cells at S phase at 50 nM measured after 4 days by PI staining based flow cytometry analysis (reference value: 17.9%); format: functional; conditions: time 4 day
PC-3 [4] = assay: Induction of cell cycle arrest in human PC-3 cells assessed as accumulation of cells at G1/G0 phase at 50 nM measured after 8 days by PI staining based flow cytometry analysis (reference value: 73.2%); format: functional; conditions: time 8 day
PC-3 [5] = assay: Induction of cell cycle arrest in human PC-3 cells assessed as accumulation of cells at G1/G0 phase at 1 nM measured after 6 days by PI staining based flow cytometry analysis (reference value: 79.8%); format: functional; conditions: time 6 day
PC-3 [6] = assay: Induction of cell cycle arrest in human PC-3 cells assessed as accumulation of cells at S phase at 50 nM measured after 8 days by PI staining based flow cytometry analysis (reference value: 12.9%); format: functional; conditions: time 8 day
PC-3 [7] = assay: Induction of cell cycle arrest in human PC-3 cells assessed as accumulation of cells at G1/G0 phase at 1 nM measured after 8 days by PI staining based flow cytometry analysis (reference value: 73.2%); format: functional; conditions: time 8 day
PC-3 [8] = assay: Induction of cell cycle arrest in human PC-3 cells assessed as accumulation of cells at G2/M phase at 1 nM measured after 8 days by PI staining based flow cytometry analysis (reference value: 13.9%); format: functional; conditions: time 8 day
PC-3 [9] = assay: Induction of cell cycle arrest in human PC-3 cells assessed as accumulation of cells at G2/M phase at 1000 nM measured after 8 days by PI staining based flow cytometry analysis (reference value: 13.9%); format: functional; conditions: time 8 day
PC-3 [10] = assay: Induction of cell cycle arrest in human PC-3 cells assessed as accumulation of cells at G1/G0 phase at 50 nM measured after 6 days by PI staining based flow cytometry analysis (reference value: 79.8%); format: functional; conditions: time 6 day
PC-3 [11] = assay: Induction of cell cycle arrest in human PC-3 cells assessed as accumulation of cells at G2/M phase at 1000 nM measured after 4 days by PI staining based flow cytometry analysis (reference value: 10.7%); format: functional; conditions: time 4 day
PC-3 [12] = assay: Induction of cell cycle arrest in human PC-3 cells assessed as accumulation of cells at G2/M phase at 50 nM measured after 8 days by PI staining based flow cytometry analysis (reference value: 13.9%); format: functional; conditions: time 8 day
PC-3 [13] = assay: Induction of cell cycle arrest in human PC-3 cells assessed as accumulation of cells at G2/M phase at 1 nM measured after 4 days by PI staining based flow cytometry analysis (reference value: 10.7%); format: functional; conditions: time 4 day
PC-3 [14] = assay: Induction of cell cycle arrest in human PC-3 cells assessed as accumulation of cells at G1/G0 phase at 50 nM measured after 4 days by PI staining based flow cytometry analysis (reference value: 67.6%); format: functional; conditions: time 4 day
PC-3 [15] = assay: Induction of cell cycle arrest in human PC-3 cells assessed as accumulation of cells at G1/G0 phase at 1000 nM measured after 8 days by PI staining based flow cytometry analysis (reference value: 73.2%); format: functional; conditions: time 8 day
PC-3 [16] = assay: Induction of cell cycle arrest in human PC-3 cells assessed as accumulation of cells at G2/M phase at 1000 nM measured after 6 days by PI staining based flow cytometry analysis (reference value: 9.96%); format: functional; conditions: time 6 day
PC-3 [17] = assay: Induction of cell cycle arrest in human PC-3 cells assessed as accumulation of cells at S phase at 1 nM measured after 6 days by PI staining based flow cytometry analysis (reference value: 8.60%); format: functional; conditions: time 6 day
PC-3 [18] = assay: Induction of cell cycle arrest in human PC-3 cells assessed as accumulation of cells at S phase at 1 nM measured after 8 days by PI staining based flow cytometry analysis (reference value: 12.9%); format: functional; conditions: time 8 day
PC-3 [19] = assay: Induction of cell cycle arrest in human PC-3 cells assessed as accumulation of cells at G2/M phase at 50 nM measured after 6 days by PI staining based flow cytometry analysis (reference value: 9.96%); format: functional; conditions: time 6 day
PC-3 [20] = assay: Induction of cell cycle arrest in human PC-3 cells assessed as accumulation of cells at S phase at 1000 nM measured after 6 days by PI staining based flow cytometry analysis (reference value: 8.60%); format: functional; conditions: time 6 day
PC-3 [21] = assay: Induction of cell cycle arrest in human PC-3 cells assessed as accumulation of cells at S phase at 50 nM measured after 6 days by PI staining based flow cytometry analysis (reference value: 8.60%); format: functional; conditions: time 6 day
PC-3 [22] = assay: Induction of cell cycle arrest in human PC-3 cells assessed as accumulation of cells at S phase at 1 nM measured after 4 days by PI staining based flow cytometry analysis (reference value: 17.9%); format: functional; conditions: time 4 day
PC-3 [23] = assay: Induction of cell cycle arrest in human PC-3 cells assessed as accumulation of cells at G1/G0 phase at 1000 nM measured after 6 days by PI staining based flow cytometry analysis (reference value: 79.8%); format: functional; conditions: time 6 day
PC-3 [24] = assay: Induction of cell cycle arrest in human PC-3 cells assessed as accumulation of cells at S phase at 1000 nM measured after 8 days by PI staining based flow cytometry analysis (reference value: 12.9%); format: functional; conditions: time 8 day
PC-3 [25] = assay: Induction of cell cycle arrest in human PC-3 cells assessed as accumulation of cells at G1/G0 phase at 1000 nM measured after 4 days by PI staining based flow cytometry analysis (reference value: 67.6%); format: functional; conditions: time 4 day
PC-3 [26] = assay: Induction of cell cycle arrest in human PC-3 cells assessed as accumulation of cells at G2/M phase at 1 nM measured after 6 days by PI staining based flow cytometry analysis (reference value: 9.96%); format: functional; conditions: time 6 day
PC-3 [27] = assay: Induction of cell cycle arrest in human PC-3 cells assessed as accumulation of cells at S phase at 1000 nM measured after 4 days by PI staining based flow cytometry analysis (reference value: 17.9%); format: functional; conditions: time 4 day
[28] = Drug uptake in human PC-3 cells assessed as increase in fluorescence intensity at upto 1000 nM by Hoechst nuclear dye based fluorescent microscopic analysis; format: ADME, cell-based; conditions: pc-3, 1 µM

Structure (SMILES): CC[C@H](C)[C@@H]([C@@H](CC(=O)N1CCC[C@H]1[C@H](OC)[C@@H](C)C(=O)N[C@@H](Cc1ccccc1)C(=O)O)OC)N(C)C(=O)[C@@H](NC(=O)[C@@H](NC)C(C)C)C(C)C (H-[NMeV]V[Dil][Dolaproine]F-OH)
Activity (PC-3 [1]): 8.23%
Activity (PC-3 [2]): 68.9%
Activity (PC-3 [3]): 30.1%
Activity (PC-3 [4]): 50.8%
Activity (PC-3 [5]): 75.5%
Activity (PC-3 [6]): 32%
Activity (PC-3 [7]): 65.8%
Activity (PC-3 [8]): 17.2%
Activity (PC-3 [9]): 12.6%
Activity (PC-3 [10]): 70.6%
Activity (PC-3 [11]): 3.87%
Activity (PC-3 [12]): 18.4%
Activity (PC-3 [13]): 7.89%
Activity (PC-3 [14]): 58.5%
Activity (PC-3 [15]): 27.5%
Activity (PC-3 [16]): 3.87%
Activity (PC-3 [17]): 11.8%
Activity (PC-3 [18]): 19%
Activity (PC-3 [19]): 5.39%
Activity (PC-3 [20]): 47.6%
Activity (PC-3 [21]): 20.2%
Activity (PC-3 [22]): 20.8%
Activity (PC-3 [23]): 44.7%
Activity (PC-3 [24]): 60.7%
Activity (PC-3 [25]): 44.7%
Activity (PC-3 [26]): 10.6%
Activity (PC-3 [27]): 47.6%

Drug uptake [28]: Active
Structure (SMILES): CC[C@H](C)[C@@H]([C@@H](CC(=O)N1CCC[C@H]1[C@H](OC)[C@@H](C)C(=O)N[C@@H](Cc1ccccc1)c1nc(CNC(=O)CCC(=O)N2CCN(C(=O)c3ccccc3-c3c4ccc(=[N+](CC)CC)cc-4oc4cc(N(CC)CC)ccc34)CC2)cs1)OC)N(C)C(=O)[C@@H](NC(=O)[C@H](C(C)C)N(C)C)C(C)C (stereo in doubt)
